From ChEMBL document CHEMBL1141846, “New verticillin and glisoprenin analogues from gliocladium catenulatum, a mycoparasite of aspergillus flavus sclerotia” (1999)

Experiments:
Bacillus subtilis [1] = assay: Antibacterial activity against Bacillus subtilis ATCC 6051 at 50 ug/disk by standard petri-plate assay; format: functional, organism-based
Staphylococcus aureus [2] = assay: Antibacterial activity against Staphylococcus aureus ATCC 14053 at 50 ug/disk by standard petri-plate assay; format: functional, organism-based
Bacillus subtilis [3] = assay: Antibacterial activity against Bacillus subtilis ATCC 6051 at 100 ug/disk by standard petri-plate assay; format: functional; conditions: read-out: IZ
Staphylococcus aureus [4] = assay: Antibacterial activity against Staphylococcus aureus ATCC 14053 at 100 ug/disk by standard petri-plate assay; format: functional; conditions: read-out: IZ

Molecule	inhibition zone (IZ) (Bacillus subtilis [1]) [mm]	inhibition zone (IZ) (Staphylococcus aureus [2]) [mm]	zone of inhibition at 100 µg/disc (Bacillus subtilis [3]) [mm]	zone of inhibition at 100 µg/disc (Staphylococcus aureus [4]) [mm]
GENTAMICIN SULFATE	25	25		
CC(=O)[C@@]12SS[C@]3(C(=O)N1C)[C@@H](O)[C@]1([C@@]45c6ccccc6N[C@@H]4N4C(=O)[C@]6(C(C)=O)SS[C@]4(C(=O)N6C)[C@H]5O)c4ccccc4N[C@@H]1N3C2=O [VERTICILLIN E]			23	11
CC(=O)[C@@]12SS[C@]3(C(=O)N1C)[C@@H](O)[C@]1([C@@]45c6ccccc6N[C@@H]4N4C(=O)[C@]6(C(C)O)SS[C@]4(C(=O)N6C)[C@H]5O)c4ccccc4N[C@@H]1N3C2=O (stereo partly drawn) [VERTICILLIN F]			23	11
CC(O)[C@@]12SS[C@]3(C(=O)N1C)[C@@H](O)C1([C@@]45c6ccccc6N[C@@H]4N4C(=O)[C@]6(C(C)O)SS[C@]4(C(=O)N6C)[C@H]5O)c4ccccc4N[C@@H]1N3C2=O (stereo partly drawn) [VERTICILLIN D]			23	11
